Entries after “also recorded” stand apart in the source; their conditions may differ.

Experiment [1] addresses T1, S1P1 receptor (Homo sapiens, UniProt P21453).
T1 construct: expressed in transfected cells; host or cells: CHO-K1 (ATCC CCL-61), stably transfected
The experiment is described as follows: HTRF assay for direct cAMP measurement (S1P1 receptor agonists). It is filed as cell-based. As to conditions: recombinant CHO-K1 cells stably transfected with S1P1 receptor; decrease of cAMP concentration. The source says:
Compounds were screened for agonists of S1P1 receptor (e.g., human S1P1 receptor) using HTRF® assay for direct cAMP measurement (Gabriel et al, ASSAY and Drug Development Technologies, 1:291-303, 2003) and recombinant CHO-K1 cells stably transfected with S1P1 receptor. CHO-K1 cells were obtained from ATCC® (Manassas, Va.; Catalog #CCL-61). An agonist of S1P1 receptor was detected in HTRF® assay for direct cAMP measurement as a compound which decreased cAMP concentration. HTRF® assay also was used to determine EC50 values for S1P1 receptor agonists.
Principle of the assay: HTRF® assay kit was purchased from Cisbio-US, Inc. (Bedford, Mass.; Catalog #62AM4PEC). The HTRF® assay supported by the kit is a competitive immunoassay between endogenous cAMP produced by the CHO-K1 cells and tracer cAMP labeled with the dye d2. The tracer binding is visualized by a monoclonal anti-cAMP antibody labeled with Cryptate. The specific signal (i.e., fluorescence resonance energy transfer, FRET) is inversely proportional to the concentration of unlabeled cAMP in the standard or sample.
The fluorescence ratio of the samples (test compound or compound buffer) was calculated and used to deduce respective cAMP concentrations by reference to the cAMP standard curve.
Setup of the assay: HTRF® assay was carried out using a two-step protocol essentially according to the kit manufacturer's instructions, in 20 μL total volume per well in 384-well plate format (ProxiPlates; PerkinElmer, Fremont, Calif.; catalog #6008280). To each of the experimental wells was transferred 1500 recombinant CHO-K1 cells in 5 μL phosphate buffered saline containing calcium chloride and magnesium chloride (“PBS+”; Invitrogen, Carlsbad, Calif.; catalog #14040) supplemented with IBMX (250 μM) and rolipram (20 μM) (phosphodiesterase inhibitors; Sigma-Aldrich, St. Louis, Mo.; catalog #I5879 and catalog #R6520, respectively), followed by test compound in 5 μL compound buffer (PBS+ supplemented with […] (water-soluble forskolin derivative; SignaGen Laboratories, Gaithersburg, Md.; catalog #PKI-NKH477-010)) or 5 μL compound buffer. The plate was then incubated at room temperature for 1 hour. To each well was then added 5 μL cAMP-d2 conjugate in lysis buffer and 5 μL Cryptate conjugate in lysis buffer according to the kit manufacturer's instructions. The plate was then further incubated at room temperature for 1 hour, after which the assay plate was read.
Assay readout: HTRF® readout was accomplished using a PHERAstar (BMG LABTECH Inc., Durham, N.C.) or EnVision™ (PerkinElmer, Fremont Calif.) microplate reader.

Experiment [2] concerns the target S1P3 receptor (Homo sapiens, UniProt Q99500). Nature of the experiment: Cellular/functional Ca2+ assay for agonist activity on S1P3 receptor. It is filed as cell-based. Details: a human neuroblastoma cell line which endogenously expresses S1P3 (predominantly); endogenous in cells. As to conditions: human neuroblastoma cell line endogenously expressing S1P3; FIG. 1. The source says: Of these, S1P3 and S1P2 receptors respond to agonist, such as S1P, with an intracellular calcium increase. […] Such an assay can be performed commercially, e.g. by Caliper LifeSciences (Hopkinton, Mass.).
Assay: The human neuroblastoma cells were washed and resuspended in physiological buffer. The cells were then loaded with dye that measures intracellular calcium. S1P was used as a reference agonist. Compound 52 was included in the assay as a test compound. After addition of S1P or Compound 52, fluorescence was measured at 485 nm excitation/525 nm emission every 2 s for at least 60 s. Calcium ionophore A23187 was then added as an internal positive control.

Experiment [3] has as its system Male BALB/c mice. The experiment is described as follows: Mouse peripheral lymphocyte lowering (PLL) assay. It is filed as in vivo. To be noted: 1 mg/kg i.v. in 100% PEG400, 5 h post dose, compared with vehicle; *P<0.05; FIG. 2. How it is done: Animals: Male BALB/c mice (6 to 7 weeks of age at start of study) (Charles River Laboratories, Wilmington, Mass.) were housed four per cage and maintained in a humidity- (40-60%) and temperature- (68-72° F.) controlled facility on a 12 h:12 h light/dark cycle (lights on at 6:30 am) with free access to food (Harlan Teklad, Orange, Calif., Rodent Diet 8604) and water. Mice were allowed one week of habituation to the animal facility before testing.
PLL Assay: Mice were administered via i.v. one of the following: saline, vehicle (100% PEG400) or 1 mg/kg Compound 52 in vehicle, in a total volume of 5 ml/kg. Peripheral blood samples were collected at 5 h post dose. The mice were anesthetized with isoflurane and bled retro-orbitally (300 μL) into 1.5 ml EDTA tubes. A complete cell count (CBC) (including lymphocyte count) was obtained using CELL-DYN® 3700 (Abbott Laboratories, Abbott Park, Ill.). Results are presented in FIG. 2, in which peripheral blood lymphocyte (PBL) count is shown for the 5 hour group.

Chain of S1P3 receptor (Q99500 whole entry): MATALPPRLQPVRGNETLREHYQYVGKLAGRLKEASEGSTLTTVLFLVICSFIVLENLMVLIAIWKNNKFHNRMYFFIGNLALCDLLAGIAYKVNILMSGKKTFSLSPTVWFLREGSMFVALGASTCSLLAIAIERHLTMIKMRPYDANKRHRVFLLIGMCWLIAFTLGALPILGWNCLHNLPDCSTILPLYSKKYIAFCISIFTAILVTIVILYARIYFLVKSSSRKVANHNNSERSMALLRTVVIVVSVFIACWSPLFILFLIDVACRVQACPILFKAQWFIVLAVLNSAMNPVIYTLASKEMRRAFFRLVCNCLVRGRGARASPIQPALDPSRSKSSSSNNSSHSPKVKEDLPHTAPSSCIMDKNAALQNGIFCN
T1 sequence (P21453 whole entry): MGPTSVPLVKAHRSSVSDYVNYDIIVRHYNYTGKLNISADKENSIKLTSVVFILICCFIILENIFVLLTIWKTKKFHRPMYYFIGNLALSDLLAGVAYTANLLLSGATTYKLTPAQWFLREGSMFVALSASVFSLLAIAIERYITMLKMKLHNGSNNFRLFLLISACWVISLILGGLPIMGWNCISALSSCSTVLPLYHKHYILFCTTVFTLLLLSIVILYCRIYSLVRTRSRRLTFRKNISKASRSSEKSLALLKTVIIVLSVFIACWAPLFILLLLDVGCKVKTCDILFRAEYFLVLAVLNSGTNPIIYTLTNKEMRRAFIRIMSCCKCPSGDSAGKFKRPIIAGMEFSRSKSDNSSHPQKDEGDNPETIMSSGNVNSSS

The term EC50 denotes the concentration at which the effect is half-maximal. With `CCOc1ncc(-c2nc(-c3ccc4[nH]c5c(c4c3)CCC5CC(=O)O)no2)cc1C` (stereo not shown) [Compound 62, 2-(7-(5-(6-Ethoxy-5-methylpyridin-3-yl)-1,2,4-oxadiazol-3-yl)-1,2,3,4-tetrahydrocyclopenta[b]indol-3-yl)acetic Acid], the EC50 in experiment [1] was 210 nM.
On the same count and under the same terms, then `COc1ccc(-c2nc(-c3ccc4[nH]c5c(c4c3)CCC5CC(=O)O)no2)cc1C(F)(F)F` (stereo not shown) [Compound 42, 2-(7-(5-(4-Methoxy-3-(trifluoromethyl)phenyl)-1,2,4-oxadiazol-3-yl)-1,2,3,4-tetrahydrocyclopenta[b]indol-3-yl)acetic Acid], with 94 nM.
In the case of `O=C(O)CC1CCc2c1[nH]c1ccc(-c3noc(-c4cc(C(F)(F)F)cc(C(F)(F)F)c4)n3)cc21` (stereo not shown) [Compound 52, 2-(7-(5-(3,5-Bis(trifluoromethyl)phenyl)-1,2,4-oxadiazol-3-yl)-1,2,3,4-tetrahydrocyclopenta[b]indol-3-yl)acetic Acid], the “agonist activity on S1P3 receptor (intracellular calcium)” value in experiment [2] is recorded as “substantially little to no activity; also recorded: no or substantially no agonist activity”. For the same molecule, in experiment [3], the “peripheral blood lymphocyte (PBL) count / peripheral lymphocyte lowering” value is reported as “exhibited activity for inducing peripheral lymphocyte lowering”. The half-maximal effective concentration (EC50) in experiment [1] came to 75.9 nM.
Consider `N#Cc1cc(OCCF)cc(-c2nc(-c3ccc4[nH]c5c(c4c3)CCC5CC(=O)O)no2)c1` (stereo not shown) [Compound 32, 2-(7-(5-(3-Cyano-5-(2-fluoroethoxy)phenyl)-1,2,4-oxadiazol-3-yl)-1,2,3,4-tetrahydrocyclopenta[b]indol-3-yl)acetic Acid], for which the 50% effective concentration (EC50) in experiment [1] was 43 nM.
Regarding `CNc1ccc2oc(C[C@H]3O[C@@]4(CC[C@H]3C)O[C@H]([C@H](C)C(=O)c3ccc[nH]3)[C@H](C)C[C@H]4C)nc2c1C(=O)O` [Compound A23187, reference compound], the “agonist activity on S1P3 receptor (intracellular calcium)” value in experiment [2] was “pronounced agonist activity”.
Turning to `NC(=O)c1cc(OC(F)(F)F)cc(-c2nc(-c3ccc4[nH]c5c(c4c3)CCC5CC(=O)O)no2)c1` (stereo not shown) [Compound 51, 2-(7-(5-(3-Carbamoyl-5-(trifluoromethoxy)phenyl)-1,2,4-oxadiazol-3-yl)-1,2,3,4-tetrahydrocyclopenta[b]indol-3-yl)acetic Acid], the half-maximal effective concentration (EC50) in experiment [1] stood at 230 nM.
Still for that read-out and setting: with `O=C(O)CC1CCc2c1[nH]c1ccc(-c3noc(-c4ccc(OCC(F)(F)F)nc4)n3)cc21` (stereo not shown) [Compound 47, 2-(7-(5-(6-(2,2,2-Trifluoroethoxy)pyridin-3-yl)-1,2,4-oxadiazol-3-yl)-1,2,3,4-tetrahydrocyclopenta[b]indol-3-yl)acetic Acid] the figure was 83 nM.
The same measure, in the same setting: with `N#Cc1cc(-c2nc(-c3ccc4[nH]c5c(c4c3)CCC5CC(=O)O)no2)ccc1OC1CCCC1` (single isomer, unassigned) [Compound 19, 2-(7-(5-(3-Cyano-4-(cyclopentyloxy)phenyl)-1,2,4-oxadiazol-3-yl)-1,2,3,4-tetrahydrocyclopenta[b]indol-3-yl)acetic Acid] the figure was 18.8 nM.

The record behind these values is patent publication US20100273806A1, “TETRAHYDROCYCLOPENTA[B]INDOL-3-YL CARBOXYLIC ACID DERIVATIVES USEFUL IN THE TREATMENT OF AUTOIMMUNE AND INFLAMMATORY DISORDERS” (ARENA PHARMACEUTICALS, INC., priority 2007, published 2010).
